Data: PubChem BioAssay AID330 (DTP/NCI, 2004)
Where “and” joins values, the source holds several entries; their conditions need not be identical. Identical values can stand only once. Inconclusive results and toxic doses are left out.

Test system: P388 leukemia ip, CD2F1 mice, survival T/C
Assay: NCI In Vivo Anticancer Drug Screen. Data for tumor model P388 Leukemia (intraperitoneal) in CD2F1 (CDF1) mice
Details: endpoint: median survival time, higher = longer survival
Procedure, shortened: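 Mice carrying the transplanted tumor received test compound or vehicle. Survival was recorded in each group, and the value is the treated-group measurement divided by that of the vehicle-treated control group.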

[1] = dose: 50.0 mg/kg/injection, schedule: Q01DX005 (ip), vehicle: saline with Tween-80
[2] = dose: 100.0 mg/kg/injection, schedule: Q01DX005 (ip), vehicle: saline with Tween-80
[3] = dose: 50.0 mg/kg/injection, schedule: Q01DX005 (ip), vehicle: Klucel + Tween-80
[4] = dose: 100.0 mg/kg/injection, schedule: Q01DX005 (ip), vehicle: Klucel + Tween-80
[5] = dose: 60.0 mg/kg/injection, schedule: Q01DX005 (ip), vehicle: saline with Tween-80
[6] = dose: 120.0 mg/kg/injection, schedule: Q01DX005 (ip), vehicle: saline with Tween-80
[7] = dose: 240.0 mg/kg/injection, schedule: Q01DX005 (ip), vehicle: saline with Tween-80
[8] = dose: 100.0 mg/kg/injection, schedule: Q01DX001 (ip), vehicle: Klucel (hydroxypropylcellulose) (HPC)
[9] = dose: 200.0 mg/kg/injection, schedule: Q01DX001 (ip), vehicle: Klucel (hydroxypropylcellulose) (HPC)
[10] = dose: 400.0 mg/kg/injection, schedule: Q01DX001 (ip), vehicle: Klucel (hydroxypropylcellulose) (HPC)
[11] = dose: 12.5 mg/kg/injection, schedule: Q01DX009 (ip), vehicle: saline with Tween-80
[12] = dose: 25.0 mg/kg/injection, schedule: Q01DX009 (ip), vehicle: saline with Tween-80
[13] = dose: 50.0 mg/kg/injection, schedule: Q01DX009 (ip), vehicle: saline with Tween-80
[14] = dose: 100.0 mg/kg/injection, schedule: Q01DX009 (ip), vehicle: saline with Tween-80
[15] = dose: 50.0 mg/kg/injection, schedule: Q01DX009 (ip), vehicle: saline
[16] = dose: 200.0 mg/kg/injection, schedule: Q01DX009 (ip), vehicle: saline with Tween-80
[17] = dose: 200.0 mg/kg/injection, schedule: Q01DX005 (ip), vehicle: saline with Tween-80
[18] = dose: 100.0 mg/kg/injection, schedule: Q04DX003 (ip), vehicle: Klucel (hydroxypropylcellulose) (HPC)
[19] = dose: 200.0 mg/kg/injection, schedule: Q04DX003 (ip), vehicle: Klucel (hydroxypropylcellulose) (HPC)
[20] = dose: 400.0 mg/kg/injection, schedule: Q04DX003 (ip), vehicle: Klucel (hydroxypropylcellulose) (HPC)

Q: Which results are given for `CCN(CC)CCC(=O)c1ccc(Cl)c2ccccc12`?
A: T/C (dose: 6.25 mg/kg/injection, schedule: Q01DX005 (ip), vehicle: saline with Tween-80): 101 % of control; T/C (dose: 12.5 mg/kg/injection, schedule: Q01DX005 (ip), vehicle: saline with Tween-80): 93 % of control; T/C (dose: 25.0 mg/kg/injection, schedule: Q01DX005 (ip), vehicle: saline with Tween-80): 99 % of control and 104 % of control; T/C [1]: 109 % of control; T/C [2]: 93 % of control

Q: What does the source list for `CN(C)c1ccc(C(=C2C=CC(=[N+](C)C)C=C2)c2ccc(N(C)C)cc2)cc1` (tested in a mixture with another compound)?
A: T/C (dose: 0.62 mg/kg/injection, schedule: Q01DX009 (ip), vehicle: saline with Tween-80): 122 % of control; T/C (dose: 2.5 mg/kg/injection, schedule: Q01DX009 (ip), vehicle: saline with Tween-80): 120 % of control

Q: How did the T/C (dose: 60.0 mg/kg/injection, schedule: Q01DX005 (ip), vehicle: Klucel (hydroxypropylcellulose) (HPC)) turn out when `Clc1cccc2c(SCCCCCSc3c4ccccc4nc4c(Cl)cccc34)c3ccccc3nc12` was run?
A: 93 % of control

Q: And the T/C (dose: 120.0 mg/kg/injection, schedule: Q01DX005 (ip), vehicle: Klucel (hydroxypropylcellulose) (HPC))?
A: 93 % of control

Q: What about the T/C (dose: 240.0 mg/kg/injection, schedule: Q01DX005 (ip), vehicle: Klucel (hydroxypropylcellulose) (HPC)) of the same compound?
A: 87 % of control

Q: What does the source list for `Cc1cc2c(cc1C)NC1C(=O)C(c3ccccc3Cl)OC1=N2` (centres undefined)?
A: T/C [3]: 92 % of control; T/C [4]: 94 % of control; T/C (dose: 200.0 mg/kg/injection, schedule: Q01DX005 (ip), vehicle: Klucel + Tween-80): 91 % of control

Q: `O=C1CCC(c2n[nH]c(=S)o2)N1Cc1ccccc1` (centres undefined) was tested. Which T/C [5] did it give?
A: 98 % of control

Q: What about the T/C [6] of the same compound?
A: 100 % of control

Q: And the T/C [7]?
A: 103 % of control

Q: How did the T/C (dose: 15.0 mg/kg/injection, schedule: Q01DX005 (ip), vehicle: saline with Tween-80) turn out when `Cc1c(O)c2ccccc2c2c1sc(NCCO)[n+]2C` was run?
A: 100 % of control

Q: What about the T/C (dose: 30.0 mg/kg/injection, schedule: Q01DX005 (ip), vehicle: saline with Tween-80) of the same compound?
A: 105 % of control

Q: What about the T/C [5] of the same compound?
A: 98 % of control and 99 % of control

Q: With `Cn1c(Br)c(/C=N/NC(N)=S)c2ccccc21` as the compound, how does the T/C [8] read?
A: 108 % of control

Q: What about the T/C [9] of the same compound?
A: 100 % of control

Q: And the T/C [10]?
A: 102 % of control

Q: Which T/C (dose: 100.0 mg/kg/injection, schedule: Q04DX002 (ip), vehicle: saline) does the source give for `CN1CCC(O)(C(=O)c2ccccc2)CC1` here?
A: 99 % of control and 104 % of control

Q: And the T/C (dose: 200.0 mg/kg/injection, schedule: Q04DX002 (ip), vehicle: saline)?
A: 103 % of control

Q: Which results are given for `CCC(C)C1NC(=O)C(NC(=O)c2c3nc4c(C(=O)NC5C(=O)NC(C(C)CC)C(=O)N6CCCC6C(=O)N(C)CC(=O)N(C)C(C(C)C)C(=O)OC5C)ccc(C)c4oc-3c(C)c(=O)c2Cl)C(C)OC(=O)C(C(C)C)N(C)C(=O)CN(C)C(=O)C2CCCN2C1=O` (centres undefined)?
A: T/C (dose: 0.05 mg/kg/injection, schedule: Q01DX009 (ip), vehicle: water): 92 % of control; T/C (dose: 0.1 mg/kg/injection, schedule: Q01DX009 (ip), vehicle: water): 96 % of control; T/C (dose: 0.2 mg/kg/injection, schedule: Q01DX009 (ip), vehicle: water): 99 % of control; T/C (dose: 0.4 mg/kg/injection, schedule: Q01DX009 (ip), vehicle: water): 102 % of control and 111 % of control; T/C (dose: 0.8 mg/kg/injection, schedule: Q01DX009 (ip), vehicle: water): 118 % of control; T/C (dose: 3.2 mg/kg/injection, schedule: Q01DX009 (ip), vehicle: water): 155 % of control; T/C (dose: 6.4 mg/kg/injection, schedule: Q01DX009 (ip), vehicle: water): 174 % of control

Q: With `O=C1C(c2ccccc2)=C(c2ccc(Br)cc2)C2(c3ccc(Br)cc3)CC12c1ccccc1` (centres undefined) as the compound, how does the T/C [3] read?
A: 91 % of control

Q: And the T/C [4]?
A: 88 % of control

Q: How did the T/C (dose: 1.56 mg/kg/injection, schedule: Q01DX009 (ip), vehicle: saline with Tween-80) turn out when `COC(=O)/C=C(\Br)C(=O)OC` was run?
A: 106 % of control

Q: What about the T/C (dose: 3.12 mg/kg/injection, schedule: Q01DX009 (ip), vehicle: saline with Tween-80) of the same compound?
A: 98 % of control

Q: What about the T/C (dose: 6.25 mg/kg/injection, schedule: Q01DX009 (ip), vehicle: saline with Tween-80) of the same compound?
A: 101 % of control

Q: For `Oc1ccccc1CNCc1ccccc1O`, which T/C [11] is on record?
A: 100 % of control

Q: What about the T/C [12] of the same compound?
A: 100 % of control

Q: What about the T/C [13] of the same compound?
A: 108 % of control

Q: What about the T/C [14] of the same compound?
A: 98 % of control

Q: Which T/C (dose: 50.0 mg/kg/injection, schedule: Q01DX005 (ip), vehicle: Klucel (hydroxypropylcellulose) (HPC)) does the source give for `CNC(=S)N/N=C(C)/C=C/c1ccccc1` here?
A: 107 % of control

Q: What about the T/C (dose: 100.0 mg/kg/injection, schedule: Q01DX005 (ip), vehicle: Klucel (hydroxypropylcellulose) (HPC)) of the same compound?
A: 101 % of control

Q: And the T/C (dose: 200.0 mg/kg/injection, schedule: Q01DX005 (ip), vehicle: Klucel (hydroxypropylcellulose) (HPC))?
A: 101 % of control

Q: How did the T/C (dose: 0.79 mg/kg/injection, schedule: Q01DX009 (ip), vehicle: saline) turn out when `Cc1ccc(S(=O)(=O)/N=[Se](\C)c2ccccc2)cc1` (centres undefined) was run?
A: 95 % of control

Q: And the T/C (dose: 1.56 mg/kg/injection, schedule: Q01DX009 (ip), vehicle: saline)?
A: 97 % of control

Q: And the T/C (dose: 3.12 mg/kg/injection, schedule: Q01DX009 (ip), vehicle: saline)?
A: 93 % of control and 97 % of control

Q: What about the T/C [11] of the same compound?
A: 96 % of control

Q: And the T/C [12]?
A: 96 % of control

Q: And the T/C [13]?
A: 108 % of control

Q: What about the T/C [15] of the same compound?
A: 114 % of control

Q: With `O=C(O)c1ccccc1C(=O)O.[Cu+2].[NH-]CCC[NH-]` as the compound, how does the T/C (dose: 12.5 mg/kg/injection, schedule: Q04DX002 (ip), vehicle: saline with Tween-80) read?
A: 115 % of control

Q: How did the T/C [13] turn out when `CCOC1OCN(CCCN(C)C)CC1(C)C` (centres undefined) was run?
A: 108 % of control

Q: What about the T/C [14] of the same compound?
A: 123 % of control

Q: What about the T/C [16] of the same compound?
A: 123 % of control

Q: Which results are given for `O=c1ccc2ccc3occc(=O)c3c2o1`?
A: T/C [1]: 106 % of control; T/C [2]: 108 % of control; T/C [17]: 98 % of control

Q: With `OCCCCCCCCCCCN1CCOCC1` as the compound, how does the T/C [1] read?
A: 106 % of control

Q: And the T/C [2]?
A: 98 % of control

Q: What about the T/C [17] of the same compound?
A: 101 % of control

Q: `C(CCCSC1=NCCN1)CCSC1=NCCN1` was tested. Which T/C [15] did it give?
A: 103 % of control

Q: What about the T/C (dose: 100.0 mg/kg/injection, schedule: Q01DX009 (ip), vehicle: saline) of the same compound?
A: 100 % of control

Q: With `CC1(C)C(C(=O)/C=C/c2ccccc2)C1[N+](=O)[O-]` (centres undefined) as the compound, how does the T/C (dose: 50.0 mg/kg/injection, schedule: Q04DX003 (ip), vehicle: Klucel (hydroxypropylcellulose) (HPC)) read?
A: 96 % of control

Q: And the T/C [18]?
A: 96 % of control

Q: And the T/C [19]?
A: 100 % of control

Q: And the T/C [20]?
A: 101 % of control

Q: What does the source list for `Cc1ccc(S(=O)c2ccccc2)c(C(O)(C(F)(F)F)C(F)(F)F)c1` (centres undefined)?
A: T/C [18]: 91 % of control; T/C [19]: 93 % of control; T/C [20]: 94 % of control

Q: Which T/C [5] does the source give for `O=C1CS(=O)(=O)C(c2ccc(F)cc2)N1N1C(=O)CS(=O)(=O)C1c1ccc(F)cc1` (centres undefined) here?
A: 91 % of control

Q: What about the T/C [6] of the same compound?
A: 93 % of control

Q: What about the T/C [7] of the same compound?
A: 93 % of control

Q: How did the T/C (dose: 4.0 mg/kg/injection, schedule: Q01DX009 (ip), vehicle: saline with Tween-80) turn out when `CN1C=c2c3c(ccc2=C2C=CC4C=C5OCOC5=CC4=C21)OCO3` (centres undefined) was run?
A: 113 % of control

Q: And the T/C (dose: 8.0 mg/kg/injection, schedule: Q01DX009 (ip), vehicle: saline with Tween-80)?
A: 107 % of control

Q: What about the T/C (dose: 16.0 mg/kg/injection, schedule: Q01DX009 (ip), vehicle: saline with Tween-80) of the same compound?
A: 110 % of control

Q: What does the source list for `COc1ccc(C(c2cc(C(C)(C)C)cc(C(C)(C)C)c2O)N2CCOCC2)cc1` (centres undefined)?
A: T/C (dose: 50.0 mg/kg/injection, schedule: Q01DX005 (ip), vehicle: distilled water + alcohol): 99 % of control; T/C (dose: 100.0 mg/kg/injection, schedule: Q01DX005 (ip), vehicle: distilled water + alcohol): 103 % of control; T/C (dose: 200.0 mg/kg/injection, schedule: Q01DX005 (ip), vehicle: distilled water + alcohol): 99 % of control

Q: With `C(=N\n1cnnc1)/c1ccccc1/C=N/n1cnnc1` as the compound, how does the T/C [14] read?
A: 100 % of control

Q: What about the T/C [16] of the same compound?
A: 90 % of control

Q: And the T/C (dose: 400.0 mg/kg/injection, schedule: Q01DX009 (ip), vehicle: saline with Tween-80)?
A: 100 % of control

Q: Which results are given for `CC(C)C1NC(C(C)C)N2C(C(C)C)N12` (centres undefined)?
A: T/C [8]: 100 % of control; T/C [9]: 100 % of control; T/C [10]: 106 % of control
